{
  "source": "patent US20060014712A1",
  "about": "“Controlled delivery of therapeutic compounds” (CeMines, Inc., priority 2004, published 2006)",
  "key": {"B16 [1]": {"test_system": "B16", "assay": "Cell counting after 7 day peptide treatment", "type": "cell-based, mouse", "conditions": "CPP mimicking peptides, conc 10 µM, start count 10", "experimental": "(§1) The ability to block interaction of MITF, SOX10 and STAT3 with active transcriptional complex and inhibit proliferation and stimulate apoptosis of melanoma cells were tested on human melanoma cell lines SK-MEL-28 and WM 266-4, and mouse melanoma cell line B16. Methods. Human melanoma cell lines SK-MEL-28 and WM 2664 and mouse melanoma cell line B16 were obtained from the American Tissue Culture Collection (ATCC). Cells were cultured according to recommendations of ATCC (DMEM, 10% FCS, penicillin+streptomycin) and used in experiments after two passages in the laboratory. Cells were grown in 24 well plates, each treatment in triplicates. Cells were plated 16 hours prior treatments started. Peptides were added to the media, and media was changed every day during 7 day experiment. […] Cells were precipitated and resuspended in 100 μl of PBS, and 5 μl were removed for counting"}, "SK-MEL-28 [2]": {"test_system": "SK-MEL-28", "assay": "WST-1 test (mitochondrial activity)", "type": "cell-based, human", "conditions": "CPP mimicking peptides, conc 10 µM, untreated = 1"}, "Dct/Trp2 promoter [3]": {"test_system": "Dct/Trp2 promoter", "assay": "Transient CAT assay, Dct/Trp2 proximal promoter-CAT construct in WM 266-4", "type": "cell-based, human", "conditions": "CPP concentration 10 μM", "experimental": "(§2) SOX10 and MITF interact with the proximal promoter of Dct/Trp2 gene and induces its activity (Ludwig A. et al., FEBS Lett. 556 (1-3):236-244 (2004)). Thus, a Dct/Trp2 proximal promoter reporter construct was used to analyze effect of mimicking peptides on promoter activity using transient CAT assay.\n(§3) Methods. Human melanoma cell lines SK-MEL-28 and WM 266-4 were obtained from the American Tissue Culture Collection (ATCC) and were cultured according to recommendations of ATCC (DMEM, 10% FCS, penicillin+streptomycin). Dct/Trp2 proximal promoter-CAT construct (Ludwig et al., supra) was used in all experiments.\n(§4) Cells were transfected by using FuGene reagent (Roche Molecular Biochemicals) according to manufacturer's instructions. Freeze-thaw lysates of cells collected 48 h after the transfection were assayed for CAT activity as described (Pothier, F. et al., DNA Cell Biol. 11(1):83-90 (1992)). At least two different DNA preparations were tested for each plasmid. To normalize the transfection efficiencies, cells were cotransfected with pON260 expressing β-galactosidase (Spaete, R. R. and Mocarski, E. S., J. Virol. 54(3):817-24 (1985); Spaete, R. R. and Mocarski, E. S., J. Virol. 56(1):13543 (1985)). All the CAT activities were normalized to total protein and β-galatosidase activity.\n(§5) Following transfection, cells were grown in 6 well plates, each treatment in triplicates. Peptides were added to the media and media was changed every day during the 7 day experiment. CPP concentration was 10 μM."}, "WM 266-4 [4]": {"test_system": "WM 266-4", "assay": "Cell counting after 7 day peptide treatment", "type": "cell-based, human", "conditions": "CPP mimicking peptides, conc 10 µM, start count 10", "experimental": "as §1, with “counting Methods. Human melanoma cell lines SK-MEL-28 and WM 266-4 were obtained from the American Tissue Culture Collection (ATCC) and were cultured according to recommendations of ATCC (DMEM, 10% FCS, penicillin+streptomycin). Human keratinocytes were obtained from Clonetics and cultured according to manufacturers protocol. Cells were used in experiments after two passages in the laboratory. Cells were grown in 24 well plates, each treatment in triplicates. Cells were plated 16 hours prior treatments started. Peptides were added to the media, and media was changed every day during 7 day experiment. […] For cell counting, cells were trypsinized (0.25% Trypsin, 2 mM EDTA) in Ca, Mg free PBS. Cells were precipitated and resuspended in 100 μl of PBS, and 5 μl were removed for counting.” for “counting”"}, "B16 [5]": {"test_system": "B16", "assay": "WST-1 test (mitochondrial activity)", "type": "cell-based, mouse", "conditions": "CPP mimicking peptides, conc 10 µM, untreated = 1", "experimental": "Methods. Human melanoma cell lines SK-MEL-28 and WM 2664 and mouse melanoma cell line B16 were obtained from the American Tissue Culture Collection (ATCC). Cells were cultured according to recommendations of ATCC (DMEM, 10% FCS, penicillin+streptomycin) and used in experiments after two passages in the laboratory. Cells were grown in 24 well plates, each treatment in triplicates. Cells were plated 16 hours prior treatments started. Peptides were added to the media, and media was changed every day during 7 day experiment. […]"}, "Dct/Trp2 promoter [6]": {"test_system": "Dct/Trp2 promoter", "assay": "Transient CAT assay, Dct/Trp2 proximal promoter-CAT construct in SK-MEL-28", "type": "cell-based, human", "conditions": "CPP concentration 10 μM", "experimental": "as §2, §3, §4, §5"}, "WM 266-4 [7]": {"test_system": "WM 266-4", "assay": "WST-1 test (mitochondrial activity)", "type": "cell-based, human", "conditions": "CPP mimicking peptides, conc 10 µM, untreated = 1", "experimental": "Methods. Human melanoma cell lines SK-MEL-28 and WM 2664 and mouse melanoma cell line B16 were obtained from the American Tissue Culture Collection (ATCC). Cells were cultured according to recommendations of ATCC (DMEM, 10% FCS, penicillin+streptomycin) and used in experiments after two passages in the laboratory. Cells were grown in 24 well plates, each treatment in triplicates. Cells were plated 16 hours prior treatments started. Peptides were added to the media, and media was changed every day during 7 day experiment. […] Methods. Human melanoma cell lines SK-MEL-28 and WM 266-4 were obtained from the American Tissue Culture Collection (ATCC) and were cultured according to recommendations of ATCC (DMEM, 10% FCS, penicillin+streptomycin). Human keratinocytes were obtained from Clonetics and cultured according to manufacturers protocol. Cells were used in experiments after two passages in the laboratory. Cells were grown in 24 well plates, each treatment in triplicates. Cells were plated 16 hours prior treatments started. Peptides were added to the media, and media was changed every day during 7 day experiment. […] WST-1 test was performed to measure mitochondrial activity, which can also be used as a measure of cell number."}, "SK-MEL-28 [8]": {"test_system": "SK-MEL-28", "assay": "Cell counting after 7 day peptide treatment", "type": "cell-based, human", "conditions": "CPP mimicking peptides, conc 10 µM, start count 10", "experimental": "The ability to block interaction of MITF, SOX10 and STAT3 with active transcriptional complex and inhibit proliferation and stimulate apoptosis of melanoma cells were tested on human melanoma cell lines SK-MEL-28 and WM 266-4, and mouse melanoma cell line B16. Methods. Human melanoma cell lines SK-MEL-28 and WM 2664 and mouse melanoma cell line B16 were obtained from the American Tissue Culture Collection (ATCC). Cells were cultured according to recommendations of ATCC (DMEM, 10% FCS, penicillin+streptomycin) and used in experiments after two passages in the laboratory. Cells were grown in 24 well plates, each treatment in triplicates. Cells were plated 16 hours prior treatments started. Peptides were added to the media, and media was changed every day during 7 day experiment. CPP concentration was 10 μM For cell counting, cells were trypsinized (0.25% Trypsin, 2 mM EDTA) in Ca^+2, Mg^+2 free PBS. Cells were precipitated and resuspended in 100 μl of PBS, and 5 μl were removed for counting Methods. Human melanoma cell lines SK-MEL-28 and WM 266-4 were obtained from the American Tissue Culture Collection (ATCC) and were cultured according to recommendations of ATCC (DMEM, 10% FCS, penicillin+streptomycin). Human keratinocytes were obtained from Clonetics and cultured according to manufacturers protocol. Cells were used in experiments after two passages in the laboratory. Cells were grown in 24 well plates, each treatment in triplicates. Cells were plated 16 hours prior treatments started. Peptides were added to the media, and media was changed every day during 7 day experiment. CPP concentration was 10 μM. For cell counting, cells were trypsinized (0.25% Trypsin, 2 mM EDTA) in Ca, Mg free PBS. Cells were precipitated and resuspended in 100 μl of PBS, and 5 μl were removed for counting."}},
  "data": [
    {"sequence": "RPKKRKVRRRQLMLEPYALDMSRIRVLSESLGLATQSG [Scr-int1, reference compound]", "values": [
      {"measurement": "Cell Count 7 d", "setting": "B16 [1]", "result": 83},
      {"measurement": "WST-1 7 d", "setting": "SK-MEL-28 [2]", "result": 1},
      {"measurement": "Dct/Trp2 promoter activity (CAT assay)", "setting": "Dct/Trp2 promoter [3]", "result": "do not have significant effect"},
      {"measurement": "Cell Count 7 d", "setting": "WM 266-4 [4]", "result": 41},
      {"measurement": "WST-1 7 d", "setting": "B16 [5]", "result": 1.1},
      {"measurement": "Dct/Trp2 promoter activity (CAT assay)", "setting": "Dct/Trp2 promoter [6]", "result": "do not have significant effect"},
      {"measurement": "WST-1 7 d", "setting": "WM 266-4 [7]", "result": 1},
      {"measurement": "Cell Count 7 d", "setting": "SK-MEL-28 [8]", "result": 53}
    ]}
  ]
}
